This passage reports IC50 results from PubChem BioAssay AID1949 (Southern Research Institute, 2009).

Converted amounts (≈) assume the structure as drawn. Records with an inconclusive call do not appear. The source made the active and inactive calls. How the calls were made is not given here. Bounds are passed on as bounds.

As usually defined, the IC50 is the point on the concentration scale where inhibition reaches its midpoint.

The subject of this assay is M. tuberculosis H37Rv growth inhibition. Description: Mycobacterium tuberculosis H37Rv growth inhibition, cell based, confirmatory dose response (AID 1949).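 Further: bacteria grown 7 days with compound before Alamar blue readout.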

For `O=C(Cc1ccc(Cl)cc1)Oc1cccc2cccnc12`, the IC50 was > 50 µg/mL (inactive). The figure for `Oc1ccc(Br)cc1-c1nc(-c2cccs2)c(-c2cccs2)[nH]1` is 1.55 µg/mL (≈ 3.84 µM). The same measure for `N#Cc1cc2c(nc1SCC(=O)OCc1ccccc1)CCC2`: 0.41 µg/mL (≈ 1.26 µM). The same measure for `Cc1ccc(CN2C(=O)C(=O)c3cc(Br)ccc32)c(C)c1`: 8.44 µg/mL (≈ 24.5 µM); for `CCCCNCCCCCOc1ccc(Cl)cc1Cl`: 4.18 µg/mL (≈ 13.7 µM); for `COc1cccc(OCC(=O)c2ccc(Br)cc2)c1`: 0.37 µg/mL (≈ 1.15 µM). As to `N#CC1=C(SCC(=O)Nc2ccccc2[N+](=O)[O-])NC(=O)CC1c1ccc(F)cc1` (stereo unspecified), the IC50 was 6.76 µg/mL (≈ 15.9 µM). The figure for `Cc1ccc([N+](=O)[O-])cc1NC(=O)Nc1cccc(Cl)c1` is 0.21 µg/mL (≈ 0.687 µM).

Regarding `CCOc1cc(CNCCO)cc(Br)c1OCc1ccc(Cl)cc1Cl`, the half-inhibitory concentration (IC50) is 1.54 µg/mL (≈ 3.43 µM). The same measure for `CN1CCN(c2ccc(NC(=O)c3sc4ccccc4c3Cl)cc2)CC1`: > 50 µg/mL (inactive); for `CCNS(=O)(=O)c1ccc(NC(=O)Nc2cccc(C(F)(F)F)c2)cc1`: 7.85 µg/mL (≈ 20.3 µM). The same measure for `CN(CCOCCOc1ccc(I)cc1)Cc1ccccc1`: 6.75 µg/mL (≈ 16.4 µM); for `CCN(c1ccccc1)S(=O)(=O)c1ccc(NC(=O)Nc2ccc(Cl)cc2)cc1`: 5.77 µg/mL (≈ 13.4 µM); for `FC(F)(F)c1cccc(-n2cc(-c3ccccc3)c3c(NCc4cccnc4)ncnc32)c1`: 1.51 µg/mL (≈ 3.39 µM). For the compound `CC(CCc1ccccc1)Nc1cc(N2CCNCC2)ccc1[N+](=O)[O-]` (stereo unspecified), the IC50 is > 50 µg/mL (inactive). The same measure for `CCC(C)c1ccccc1OCCCNC1CCCC1` (stereo unspecified): 8.81 µg/mL (≈ 32 µM).

In the case of `Cc1cc(OC(F)F)ccc1NC(=O)Nc1ccc([N+](=O)[O-])cc1`, the IC50 was 22.9 µg/mL (≈ 67.9 µM). `O=C(NCCc1c[nH]c2ccccc12)Nc1ccc(Cl)c(Cl)c1`: the half-maximal inhibitory concentration (IC50) is 3.69 µg/mL (≈ 10.6 µM). Consider `CCc1c(C)c2ccc(OCC(=O)OC)c(C)c2oc1=O`, for which the concentration for half-maximal inhibition (IC50) was 0.54 µg/mL (≈ 1.86 µM).

In the case of `CC(NS(=O)(=O)c1cccc(Cl)c1)C(=O)Nc1ccc(Br)cc1F` (stereo unspecified), the IC50 was 3 µg/mL (≈ 6.89 µM). Turning to `Cc1cc(Sc2ncnc(N)c2[N+](=O)[O-])ncn1`, the IC50 is 1.7 µg/mL (≈ 6.43 µM). In the case of `CCOC(=O)c1cc(CC)sc1NC(=O)c1cc2ccccc2oc1=O`, the half-maximal inhibitory concentration (IC50) is 0.38 µg/mL (≈ 1.02 µM). The same measure for `COc1ccc(C(=O)c2ccc(N3CCN(C)CC3)c([N+](=O)[O-])c2)c2ccccc12`: 5.57 µg/mL (≈ 13.7 µM); for `COc1ccc(-c2c(C)oc3cc(OCC(=O)OC(C)C)ccc3c2=O)cc1OC`: 1.36 µg/mL (≈ 3.3 µM); for `Fc1ccc(CCNC(=S)Nc2ccc(Nc3ccccc3)cc2)cc1`: > 50 µg/mL (inactive). The same measure for `O=C(Oc1ccccc1)c1ccc(COC(=O)c2cc3ccccc3oc2=O)cc1`: > 50 µg/mL (inactive); for `Cc1cc(N2CCCC2)c(C)cc1/C=C\[N+](=O)[O-]`: > 50 µg/mL (inactive).

For the compound `CSc1cccc(NC(=O)CSc2ccc(F)cc2)c1`, the 50% inhibitory concentration (IC50) was 2.86 µg/mL (≈ 9.3 µM). For `O=C(Nc1ccccc1)Nc1ccc(S(=O)(=O)Nc2cccc(C(F)(F)F)c2)cc1`, the IC50 was 2.28 µg/mL (≈ 5.24 µM).

Turning to `CCN1C(=O)c2cccc3cc([N+](=O)[O-])cc(c23)C1=O`, the half-inhibitory concentration (IC50) is less than 0.1 µg/mL. The figure for `Cc1ccc(C(=O)Nc2ccc([N+](=O)[O-])cc2)s1` is less than 0.1 µg/mL.

As for `Cc1ccc(C(=O)NCCC2=CCCCC2)cc1Br`, the IC50 was 3.14 µg/mL (≈ 9.74 µM). For the compound `O=C(NC1CCCCC1)c1cc2cc(Cl)cc(Cl)c2oc1=O`, the IC50 was > 50 µg/mL (inactive). Consider `O=C(Oc1ccc(C2CCCCC2)cc1)c1cccs1`, for which the IC50 is 13.3 µg/mL (≈ 46.4 µM). Turning to `O=C(CCNc1ccc(F)cc1)c1ccco1`, the concentration for half-maximal inhibition (IC50) is 5.39 µg/mL (≈ 23.1 µM).

As to `N#CC1=C(SCC(=O)Nc2ccccc2C(=O)c2ccccc2)NC(=O)CC1c1ccccc1F` (stereo unspecified), the half-maximal inhibitory concentration (IC50) is 3.1 µg/mL (≈ 6.38 µM).

With `CCc1cccc(OCC(=O)Nc2ccc([N+](=O)[O-])cc2)c1`, the concentration for half-maximal inhibition (IC50) is 11.7 µg/mL (≈ 39.1 µM). The figure for `C1=CC2CC1CC2CN1CCC(N(CCc2ccccc2)Cc2ccccc2)CC1` (stereo unspecified) is 1.4 µg/mL (≈ 3.49 µM); for `COc1cccc(NC(=S)NC(=O)CC(C)(C)C)c1` it is 13.4 µg/mL (≈ 47.9 µM); for `COc1ccc(S(=O)(=O)Nc2cc(Sc3ccccc3)c(O)c3ccccc23)cc1` it is 5.29 µg/mL (≈ 12.1 µM). For the compound `COC(=O)C(C)Oc1ccc2c3c(c(=O)oc2c1)CCCCC3` (stereo unspecified), the IC50 was > 50 µg/mL (inactive).

With `O=C(C1CCCN1S(=O)(=O)c1ccc(Cl)cc1)N1CCOCC1` (stereo unspecified), the IC50 was 20 µg/mL (≈ 55.7 µM).

Turning to `N=c1c2c(-c3ccccc3)c(-c3ccccc3)n(Cc3ccco3)c2ncn1Cc1ccco1`, the IC50 is 3.09 µg/mL (≈ 6.92 µM). Take `CCOC(=O)Cc1ccc2c(=O)c(Oc3ccc(F)cc3)coc2c1`: the 50% inhibitory concentration (IC50) was 33 µg/mL (≈ 96.3 µM).

Take `O=C(Nc1cccc(C(F)(F)F)c1)Nc1cc(F)c(F)cc1Cl`: the IC50 was 19.5 µg/mL (≈ 55.5 µM). The figure for `COc1ccc(Cl)cc1CN1CCN(c2ncnc3scc(-c4ccccc4)c23)CC1` is 4.15 µg/mL (≈ 9.2 µM); for `Clc1cc(Br)ccc1OCCCCn1ccnc1` it is 1.11 µg/mL (≈ 3.37 µM); for `O=C(NCCCn1ccnc1)c1cc(-c2ccc(Br)cc2)nc2ccccc12` it is 9.43 µg/mL (≈ 21.7 µM). The figure for `Clc1ccc(-c2csc(-c3cccnc3)n2)cc1` is 5.82 µg/mL (≈ 21.3 µM); for `COCCNS(=O)(=O)c1ccc(-c2ccc(C)cc2)cc1` it is 0.49 µg/mL (≈ 1.6 µM); for `O=C(Nc1ccc(N2CCCC2)c(Cl)c1)c1ccccc1F` it is 5.78 µg/mL (≈ 18.1 µM).
